Results taken from US9630922B2, “3-spiro-7-hydroxamic acid tetralins as HDAC inhibitors” (Forma Therapeutics, Inc., priority 2015, dated 2017).

biological target: T1, HDAC6 (Homo sapiens, UniProt Q9UBN7); experiment: In vitro Histone Deacetylase Assay (enzymatic HDAC6 electrophoretic mobility shift assay); type: biochemical; details: full length human recombinant HDAC6, 1 nM enzyme, 2 μM peptide substrate RHKK(Ac)-NH2, 25° C.; read-out: HDAC6 activity range
T1 construct: Full length human recombinant HDAC6 protein was expressed in baculoviral system; made in house; host or cells: baculoviral system
T1 sequence (Q9UBN7 1-1215): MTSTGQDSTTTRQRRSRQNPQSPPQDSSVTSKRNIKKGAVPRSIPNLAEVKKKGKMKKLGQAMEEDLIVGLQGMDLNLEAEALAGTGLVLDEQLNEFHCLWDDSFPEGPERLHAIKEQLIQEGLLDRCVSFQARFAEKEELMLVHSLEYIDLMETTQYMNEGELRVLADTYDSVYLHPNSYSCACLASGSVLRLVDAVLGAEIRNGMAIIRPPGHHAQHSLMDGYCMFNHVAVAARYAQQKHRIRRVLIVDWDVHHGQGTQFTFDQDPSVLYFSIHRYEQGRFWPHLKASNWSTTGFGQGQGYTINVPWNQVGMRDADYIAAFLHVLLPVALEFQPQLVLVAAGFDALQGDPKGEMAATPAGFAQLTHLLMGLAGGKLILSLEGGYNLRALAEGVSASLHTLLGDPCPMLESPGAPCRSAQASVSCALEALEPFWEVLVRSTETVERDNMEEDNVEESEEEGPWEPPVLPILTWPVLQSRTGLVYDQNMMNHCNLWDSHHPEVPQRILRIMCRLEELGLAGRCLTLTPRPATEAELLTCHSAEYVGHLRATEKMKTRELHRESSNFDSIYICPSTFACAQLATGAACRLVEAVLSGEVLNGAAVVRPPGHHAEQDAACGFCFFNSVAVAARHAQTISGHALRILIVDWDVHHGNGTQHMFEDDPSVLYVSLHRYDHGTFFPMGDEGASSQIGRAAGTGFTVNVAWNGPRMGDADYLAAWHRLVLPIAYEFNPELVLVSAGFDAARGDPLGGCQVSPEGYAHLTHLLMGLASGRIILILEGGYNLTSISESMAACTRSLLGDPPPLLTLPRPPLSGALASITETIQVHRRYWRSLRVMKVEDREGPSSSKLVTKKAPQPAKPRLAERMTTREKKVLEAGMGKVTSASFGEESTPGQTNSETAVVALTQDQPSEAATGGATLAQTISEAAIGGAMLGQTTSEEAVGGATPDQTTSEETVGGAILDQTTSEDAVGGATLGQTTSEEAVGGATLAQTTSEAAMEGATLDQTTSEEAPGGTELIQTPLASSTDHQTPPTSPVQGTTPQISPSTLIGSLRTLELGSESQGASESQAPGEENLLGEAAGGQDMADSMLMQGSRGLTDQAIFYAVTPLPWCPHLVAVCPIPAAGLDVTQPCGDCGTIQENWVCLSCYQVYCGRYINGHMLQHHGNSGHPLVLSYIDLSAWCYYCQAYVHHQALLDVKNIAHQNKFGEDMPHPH
Experimental: The enzymatic HDAC6 assay was performed using electrophoretic mobility shift assay. Full length human recombinant HDAC6 protein was expressed in baculoviral system and purified by affinity chromatography. The enzymatic reactions were assembled in 384 well plates in a total volume of 25 μL in a reaction buffer composing: 100 mM HEPES, pH7.5, 25 mM KCl, 0.1% bovine serum albumin, 0.01% Triton X-100, 1% DMSO (from compounds) 2 μM of the fluorescently labeled peptide substrate and enzyme. The enzyme was added at a final concentration of 1 nM. The peptide substrate RHKK(Ac)—NH2 was used. The compounds were tested at 12 concentrations spaced by 3× dilution intervals. Negative control samples (0%-inhibition in the absence of inhibitor) and positive control samples (100%-inhibition) were assembled in replicates of four in each assay plate. The reactions were incubated at 25° C. and quenched by the addition of 45 μL of termination buffer (100 mM HEPES, pH 7.5, 0.01% Triton X-100, 0.05% SDS).
The terminated assay plates were analyzed on LabChip® 3000 microfluidic electrophoresis instrument (Perkin Elmer/Caliper Life Sciences). The fluorescence intensity of the electrophoretically separated de-acetylated product and substrate peptide was measured. Activity in each sample was determined as the product to sum ratio (PSR): P/(S+P), where P is the peak height of the product peptide and S is the peak height of the substrate peptide. Percent inhibition (Pinh) is determined using the following equation:
Pinh=(PSR0%−PSRinh)/(PSR0%−PSR100%)*100, where PSRinh is the product sum ratio in the presence of inhibitor, PSR0% is the average product sum ration in the absence of inhibitor and PSR100% is the average product sum ratio in 100%-inhibition control samples. The IC50 values of inhibitors were determined by fitting the %-inhibition curves with 4 parameter dose-response model using XLfit 4 software.
As set forth in Table-31, below, IC50 values are defined as follows: IC50≦0.1 μM (+++); IC50>0.1 μM and ≦0.5 μM (++); IC50>0.5 μM (+).

Compound	IC50 [nM]
O=C(NO)c1ccc2c(c1)CC[C@]1(CCN(C3CCC3)C1=O)C2 (single isomer, unassigned) [Compound I-171]	≤ 100
O=C(NO)c1ccc2c(c1)CC[C@@]1(CCN(C3CCC3)C1=O)C2 (single isomer, unassigned) [Compound I-172]	≤ 100
CN1CCC[C@@]2(CCc3cc(C(=O)NO)ccc3C2)C1=O (single isomer, unassigned) [Compound I-179]	≤ 100
CN1CCC[C@]2(CCc3cc(C(=O)NO)ccc3C2)C1=O (single isomer, unassigned) [Compound I-180]	≤ 100
O=C(NO)c1ccc2c(c1)CC[C@@]1(CCCN(c3ccccc3)C1=O)C2 (single isomer, unassigned) [Compound I-181]	≤ 100
O=C(NO)c1ccc2c(c1)CC[C@]1(CCCN(c3ccccc3)C1=O)C2 (single isomer, unassigned) [Compound I-182]	≤ 100
CCN1CCCC2(CCc3cc(C(=O)NO)ccc3C2)C1=O (single isomer, unassigned) [Compound I-184]	≤ 100
O=C(NO)c1ccc2c(c1)CCC1(CCCN(CC3CCC3)C1=O)C2 (single isomer, unassigned) [Compound I-186]	≤ 100
COCCCN1CCCC2(CCc3cc(C(=O)NO)ccc3C2)C1=O (single isomer, unassigned) [Compound I-188]	≤ 100
CC(C)CN1CCCC2(CCc3cc(C(=O)NO)ccc3C2)C1=O (single isomer, unassigned) [Compound I-189]	≤ 100
CC(C)CN1CCCC2(CCc3cc(C(=O)NO)ccc3C2)C1=O (single isomer, unassigned) [Compound I-190]	≤ 100
CC(C)N1CCCC2(CCc3cc(C(=O)NO)ccc3C2)C1=O (single isomer, unassigned) [Compound I-191]	≤ 100
CC(C)N1CCCC2(CCc3cc(C(=O)NO)ccc3C2)C1=O (single isomer, unassigned) [Compound I-192]	≤ 100
O=C(NO)c1ccc2c(c1)CC[C@@]1(CCCN(C3CC3)C1=O)C2 (single isomer, unassigned) [Compound I-193]	≤ 100
O=C(NO)c1ccc2c(c1)CCC1(CCCN(CC3COC3)C1=O)C2 (single isomer, unassigned) [Compound I-195]	≤ 100
O=C(NO)c1ccc2c(c1)CCC1(CCCN(CC3COC3)C1=O)C2 (single isomer, unassigned) [Compound I-196]	≤ 100
O=C(NO)c1ccc2c(c1)CC[C@@]1(CCCN(C3CCC3)C1=O)C2 (single isomer, unassigned) [Compound I-197]	≤ 100
O=C(NO)c1ccc2c(c1)CC[C@]1(CCCN(C3CCC3)C1=O)C2 (single isomer, unassigned) [Compound I-198]	≤ 100
CN1C[C@@]2(CCc3cc(C(=O)NO)ccc3C2)CC1=O (single isomer, unassigned) [Compound I-201]	≤ 100
CN1CC2(CCc3cc(C(=O)NO)ccc3C2)CC1=O (single isomer, unassigned) [Compound I-202]	≤ 100
O=C(NO)c1ccc2c(c1)CCC1(CC(=O)N(c3ccccc3)C1)C2 (single isomer, unassigned) [Compound I-204]	≤ 100
O=C(NO)c1ccc2c(c1)CC[C@]1(CC(=O)N(CC3CCC3)C1)C2 (single isomer, unassigned) [Compound I-205]	≤ 100
CC(C)CN1CC2(CCc3cc(C(=O)NO)ccc3C2)CC1=O (single isomer, unassigned) [Compound I-207]	≤ 100
CCN1CC2(CCc3cc(C(=O)NO)ccc3C2)CC1=O (single isomer, unassigned) [Compound I-211]	≤ 100
O=C(NO)c1ccc2c(c1)CCC1(CC(=O)N(C3CC3)C1)C2 (single isomer, unassigned) [Compound I-214]	≤ 100
O=C(NO)c1ccc2c(c1)CCC1(CC(=O)N(Cc3ccccc3)C1)C2 (single isomer, unassigned) [Compound I-216]	≤ 100
COCCCN1CC2(CCc3cc(C(=O)NO)ccc3C2)CC1=O (single isomer, unassigned) [Compound I-219]	≤ 100
O=C(NO)c1ccc2c(c1)CCC1(CC(=O)N(CC(F)(F)F)C1)C2 (single isomer, unassigned) [Compound I-220]	≤ 100
O=C(NO)c1ccc2c(c1)CCC1(CC(=O)N(c3cccnc3)C1)C2 (single isomer, unassigned) [Compound I-221]	≤ 100
O=C(NO)c1ccc2c(c1)CCC1(CC(=O)N(CC(F)(F)F)C1)C2 (single isomer, unassigned) [Compound I-223]	≤ 100

Continued, values first:

IC50 [nM]	Compound
≤ 100	O=C(NO)c1ccc2c(c1)CC[C@@]1(CCCN(CC3CCC3)C1=O)C2 (single isomer, unassigned) [Compound I-185]
≤ 100	COCCCN1CCCC2(CCc3cc(C(=O)NO)ccc3C2)C1=O (single isomer, unassigned) [Compound I-187]
≤ 100	CCN1CCCC2(CCc3cc(C(=O)NO)ccc3C2)C1=O (single isomer, unassigned) [Compound I-194]
≤ 100	O=C(NO)c1ccc2c(c1)CC[C@]1(CC(=O)N(c3ccccc3)C1)C2 (single isomer, unassigned) [Compound I-203]
≤ 100	CCN1CC2(CCc3cc(C(=O)NO)ccc3C2)CC1=O (single isomer, unassigned) [Compound I-206]
≤ 100	CC(C)N1CC2(CCc3cc(C(=O)NO)ccc3C2)CC1=O (single isomer, unassigned) [Compound I-208]
≤ 100	O=C(NO)c1ccc2c(c1)CCC1(CC(=O)N(C3CC3)C1)C2 (single isomer, unassigned) [Compound I-209]
≤ 100	O=C(NO)c1ccc2c(c1)CCC1(CC(=O)N(CC3CCC3)C1)C2 (single isomer, unassigned) [Compound I-210]
≤ 100	CC(C)CN1CC2(CCc3cc(C(=O)NO)ccc3C2)CC1=O (single isomer, unassigned) [Compound I-212]
≤ 100	CC(C)N1CC2(CCc3cc(C(=O)NO)ccc3C2)CC1=O (single isomer, unassigned) [Compound I-213]
≤ 100	O=C(NO)c1ccc2c(c1)CCC1(CC(=O)N(CC3COC3)C1)C2 (single isomer, unassigned) [Compound I-215]
100 to 500	O=C(NO)c1ccc2c(c1)CCC1(CC(=O)N(CC3COC3)C1)C2 (single isomer, unassigned) [Compound I-217]
≤ 100	O=C(NO)c1ccc2c(c1)CCC1(CC(=O)N(Cc3ccccc3)C1)C2 (single isomer, unassigned) [Compound I-218]
≤ 100	COCCCN1CC2(CCc3cc(C(=O)NO)ccc3C2)CC1=O (single isomer, unassigned) [Compound I-222]
